Measurements published in US20240216336A1, “CLOTRIMAZOLE AS A TREATMENT FOR IMMUNODEFICIENCY DISORDERS” (Northwestern University, priority 2020, published 2024).
Values belong to the compound of their own block, whether it stands above or below them.

How the values were obtained:
[1] = test system: RAW264.7 cells; test: Inflammatory cytokine mRNA expression (quantitative RT-PCR) in RAW264.7 cells; format: cell-based, mouse
Protocol: (§1) RAW264.7 cells were a gift from Jason A. Wertheim MD, PhD. HepG2 and HEK293T cells were obtained from ATCC. RAW264.7, HEK293T, and HepG2 cells were cultured in Dulbecco's Modified Eagle's Medium (DMEM) (Corning) supplemented with 10% FBS (Atlanta Biologicals), 2 mM glutamine (HyClone), and 1 mM sodium pyruvate (Corning). […]
(§2) RNA was isolated from cells or tissues using RNA-STAT60 (Teltest) followed by chloroform extraction and precipitation. Reverse transcription was carried out using qScript cDNA Synthesis Kit (Quanta Bio). The resulting cDNA was amplified quantitatively using PerfeCTa SYBR Green Mix (Quanta Bio) on a 7500 Fast Real-time PCR System (Applied Biosystems). The relative gene expression was determined using differences in Ct values between gene of interest and house-keeping control genes. Complete list of primers can be found in Key Reagents Table (Table 1).

[2] = biological target: T1, HK1 (Mus musculus, UniProt P17710); test: Immunofluorescence of HK1 and mitochondria (MT-Red) with colocalization analysis; format: cell-based; conditions: WT BMDMs; CLT (20 μM)
T1 construct: IF of HK1 and mitochondria (MT-Red) imaging in RAW264.7 cells±clotrimazole (CLT) (20 μM); endogenous in cells; the running text says WT BMDMs
T1 sequence (P17710 1-918 isoform P17710-3): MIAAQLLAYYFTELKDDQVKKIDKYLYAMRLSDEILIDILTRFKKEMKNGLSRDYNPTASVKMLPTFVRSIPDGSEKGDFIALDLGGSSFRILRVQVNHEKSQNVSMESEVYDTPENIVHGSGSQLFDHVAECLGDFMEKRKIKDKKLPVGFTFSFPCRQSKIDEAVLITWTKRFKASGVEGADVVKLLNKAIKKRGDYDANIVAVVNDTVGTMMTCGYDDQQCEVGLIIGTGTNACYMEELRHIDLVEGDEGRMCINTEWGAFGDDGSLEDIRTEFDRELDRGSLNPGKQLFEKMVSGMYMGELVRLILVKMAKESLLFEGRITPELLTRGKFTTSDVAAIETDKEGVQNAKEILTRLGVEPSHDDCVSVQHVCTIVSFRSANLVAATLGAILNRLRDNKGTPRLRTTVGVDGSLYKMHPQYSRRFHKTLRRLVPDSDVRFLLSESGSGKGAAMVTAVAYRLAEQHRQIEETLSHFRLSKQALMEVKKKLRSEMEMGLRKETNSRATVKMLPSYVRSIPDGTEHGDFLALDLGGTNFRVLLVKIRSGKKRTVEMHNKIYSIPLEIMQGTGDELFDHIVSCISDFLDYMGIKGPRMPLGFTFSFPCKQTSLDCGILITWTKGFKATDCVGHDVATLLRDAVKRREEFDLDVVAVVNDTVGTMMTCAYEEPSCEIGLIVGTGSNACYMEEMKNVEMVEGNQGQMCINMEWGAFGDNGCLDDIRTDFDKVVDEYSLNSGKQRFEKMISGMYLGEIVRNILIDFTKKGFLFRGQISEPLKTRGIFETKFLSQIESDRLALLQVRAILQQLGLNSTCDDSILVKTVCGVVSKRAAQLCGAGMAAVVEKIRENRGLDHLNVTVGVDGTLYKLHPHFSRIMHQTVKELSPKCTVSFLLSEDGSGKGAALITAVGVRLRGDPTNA
Protocol: Glass-bottom confocal dishes (35 mm; VWR) were coated with 60 nM fibronectin (Sigma-Aldrich), diluted in 0.1% gelatin overnight. Before plating cells, coated confocal dishes were washed twice with PBS. BMDMs (100,000 cells/well), PMs (100,000 cells/well), HepG2 (50,000 cells/well), or RAW264.7 (50,000 cells/well) cells were plated in their respective growth media (complete DMEM or RPMI) and allowed to settle overnight before immunofluorescence (IF) staining. For fixed cell immunofluorescence (IF), cells were plated in 6-well plates (Corning) containing 15 mm glass coverslips (Fisher-Scientific) coated in gelatin and fibronectin. Prior to fixation, growth media was removed and cells were washed 2× with PBS. Cells were fixed with 1 ml of ice-cold 4% formaldehyde for 10 min at room temperature (4% formaldehyde prepared from 16% stock and diluted in PBS). After fixing the cells, plates were washed with PBS 2× and permeabilized with 0.3% triton-X-100 in PBS for 10 min at room temperature. Then, cells were blocked with 10% FBS/PBS for 1 hour at room temperature and subsequently treated with primary antibody diluted in 10% FBS/PBS solution over-night. The next day, secondary antibody was diluted in 10% FBS/PBS at 1:1000 and incubated for 2 hrs at room temperature. […] Images were quantified using ImageJ.

[3] = biological target: GAPDH (Mus musculus, UniProt P16858); test: GAPDH activity normalized to total protein in RAW264.7 cells; format: cell-based; design: endogenous in cells; host or cells: RAW264.7; conditions: ±CLT (20 μM)
Protocol: as §1
(§3) The following kits were used according to the manufacturer's instructions: Promega NADP/NADPH quantification kit (G9081) and […] (G9071); Glyceraldehyde-3-Phosphate Dehydrogenase Activity Assay kit (abcam); ELISAs for IL-1β (DY401), IL-6 […].

[4] = test system: BMDMs from ΔE1HK1 mice; test: IL-1β ELISA from BMDM media; format: cell-based, mouse; conditions: 4 hrs LPS (200 ng/ml) ± 6AN (1 mM) or OT (50 μM), then 30 min ATP (2.5 mM)
Protocol: BMDMs were isolated from ΔE1HK1 and WT mice as previously reported (Rodriguez et al., 2019). Briefly, bone marrow was isolated from the tibia and femur of 8-10-week-old mice by puncturing one end of the femur and tibia with a 27g needle and placing it in a 0.5 ml tube with a hole punched in the bottom. The 0.5 ml tube containing the bone was then placed in a 1.75 ml tube and centrifuged at 5,000×g for 3.5 minutes. Bone marrow was then collected into the 1.75 ml tube and resuspend in 1 ml of RBC lysis buffer (abcam) for 1 minute and then transferred to a 50 ml tube with 4 ml RBC lysis buffer and incubated for 4 minutes. Next, 35 ml of PBS was added and centrifuged at 300×g for 5 min and supernatant was then decanted and cell pellet was re-suspended in complete RPMI with 20 ng/ml mCSF (Preprotech). Cells were counted using a hemocytometer and plated in 10 cm tissue culture plates at a density of 3-million cells/plate. […]
[…] Cell supernatant was collected and analyzed by ELISA according to manufacturer's instructions for IL-1β (DY401), IL-6 (DY406), and TNFα (DY410).
as §3

[5] = test system: BMDMs; test: Inflammatory cytokine mRNA expression (quantitative RT-PCR) in BMDMs; format: cell-based, mouse
Protocol: BMDMs were isolated from ΔE1HK1 and WT mice as previously reported (Rodriguez et al., 2019). Briefly, bone marrow was isolated from the tibia and femur of 8-10-week-old mice by puncturing one end of the femur and tibia with a 27g needle and placing it in a 0.5 ml tube with a hole punched in the bottom. The 0.5 ml tube containing the bone was then placed in a 1.75 ml tube and centrifuged at 5,000×g for 3.5 minutes. Bone marrow was then collected into the 1.75 ml tube and resuspend in 1 ml of RBC lysis buffer (abcam) for 1 minute and then transferred to a 50 ml tube with 4 ml RBC lysis buffer and incubated for 4 minutes. Next, 35 ml of PBS was added and centrifuged at 300×g for 5 min and supernatant was then decanted and cell pellet was re-suspended in complete RPMI with 20 ng/ml mCSF (Preprotech). Cells were counted using a hemocytometer and plated in 10 cm tissue culture plates at a density of 3-million cells/plate. Cells were cultured with 20 ng/mL mCSF to induce differentiation into BMDMs. Media was changed every 2 days and BMDMs were harvested by scraping on day 6 and plated in 12 well plates at a density of 1-million cells/well for mRNA extraction experiments. BMDMs were stimulated in the same manner as peritoneal macrophages (LPS dose for BMDMs was 200 ng/ml).
as §2

[6] = RAW264.7 cells, koningic acid, LPS
[7] = CLT (20 μM) treated cells vs vehicle treated controls
[8] = 4 hr 6AN (1 mM) or OT (50 μM), ±LPS (200 ng/ml)
[9] = 16 hrs IFNγ priming, then 4 hrs LPS (200 ng/ml) ± 6AN (1 mM) or OT (50 μM)

Sequence of GAPDH (P16858 whole entry): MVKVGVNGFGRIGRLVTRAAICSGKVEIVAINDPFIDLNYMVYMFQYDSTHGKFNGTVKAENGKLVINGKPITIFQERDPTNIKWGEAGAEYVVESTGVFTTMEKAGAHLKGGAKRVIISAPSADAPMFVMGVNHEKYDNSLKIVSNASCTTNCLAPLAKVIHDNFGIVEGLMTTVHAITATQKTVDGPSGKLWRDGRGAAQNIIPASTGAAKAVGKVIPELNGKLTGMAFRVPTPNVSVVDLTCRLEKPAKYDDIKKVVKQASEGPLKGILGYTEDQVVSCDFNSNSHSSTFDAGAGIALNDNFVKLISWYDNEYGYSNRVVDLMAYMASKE

Structure (SMILES): CC(C)[C@H]1CC[C@@]2(CO2)[C@H]2C(=O)OCC(C(=O)O)=C[C@H]12 [koningic acid]
IL-1β mRNA expression after LPS treatment [1, 6]: increased
IL-6 mRNA expression after LPS treatment [1, 6]: increased
TNFα mRNA expression after LPS treatment [1, 6]: increased

HK1 dislocation from the mitochondria [2]: significant increase
GAPDH activity in RAW264.7 cells after LPS treatment [3]: significant decrease
Structure (SMILES): Clc1ccccc1C(c1ccccc1)(c1ccccc1)n1ccnc1 [CLT, Clotrimazole]
IL-1β mRNA after LPS stimulation [1, 7]: significant increase
IL-6 mRNA after LPS stimulation [1, 7]: significant increase
TNFα mRNA after LPS stimulation [1, 7]: significant increase
cytokine mRNA levels at baseline ([1]; CLT (20 μM), no LPS): minimal change
production of inflammatory cytokines including IL-1β, TNFα, and IL-6 ([1]; macrophages in vitro (summary statement)): elevated production

Structure (SMILES): Cc1ncc(C[n+]2csc(CCO)c2C)c(=O)[nH]1 [OT, oxythiamine]
IL-1β protein release (ELISA), higher release in ΔE1HK1 BMDMs [4]: reversed
increase in IL-1β mRNA levels in BMDMs of ΔE1HK1 mice [5, 8]: abolished
increase in IL-6 mRNA levels in BMDMs of ΔE1HK1 mice [5, 8]: abolished
increase in IL-1β mRNA levels in IFN-γ primed BMDMs of ΔE1HK1 mice [5, 9]: rescued
increase in IL-6 mRNA levels in IFN-γ primed BMDMs of ΔE1HK1 mice [5, 9]: rescued
